Data as given in PubChem BioAssay AID720589 (Broad Institute, 2013).
Activity calls are given as the source filed them.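 How the source made its calls: active means fitted curve drops below -35% activity at a concentration within twice the top valid tested dose; inconclusive means no clear call, values can overlap the other calls; inactive means signal rising instead of falling, among other cases.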

Test: HepG2 hepatoma cell cytotoxicity, dose response, cytotoxicity control, CellTiter-Glo luminescence, cherry-pick, set 3 (AID 720589)
Details: HepG2 viability, ATP luminescence (CellTiter-Glo), 72 h, hits give low values
[1] = at 0.1 µM, 0% = untreated, negative = ATP loss
[2] = at 0.011 µM, 0% = untreated, negative = ATP loss
[3] = at 26 µM, 0% = untreated, negative = ATP loss
[4] = at 23.5 µM, 0% = untreated, negative = ATP loss
[5] = at 0.3 µM, 0% = untreated, negative = ATP loss
[6] = at 0.9 µM, 0% = untreated, negative = ATP loss
[7] = at 8 µM, 0% = untreated, negative = ATP loss
[8] = at 2.85 µM, 0% = untreated, negative = ATP loss
[9] = at 0.035 µM, 0% = untreated, negative = ATP loss

CCCNC(=O)N1[C@H](C#N)[C@H](c2ccc(C#Cc3ccc(F)cc3)cc2)[C@H]1CO
max activity [1]: -28.6% (inactive)

COc1ccc(/C=C2/NC(=O)N(CC(=O)Nc3cccc(C)c3)C2=O)cc1O
max activity [2]: 18.1% (inactive)

COc1ccc(C(=O)Nc2cccc(C(=O)N/N=C/c3ccc(OC)cc3OC)c2)cc1
max activity [2]: 23.8% (inactive)

C[C@@H]1CN([C@H](C)CO)C(=O)CCCn2nncc2CO[C@H]1CN(C)Cc1ccc(Oc2ccccc2)cc1
max activity [3]: -33.6% (inactive)

O=S(=O)(c1ccc(F)cc1)N1C[C@H]2[C@@H](c3ccccc31)[C@H](CO)N2Cc1ccccc1Cl
max activity [4]: -21.9% (inactive)

N#C[C@H]1[C@H](c2ccc(-c3ccccc3F)cc2)[C@@H](CO)N1C(=O)Cc1ccccc1
max activity [5]: -22.2% (inactive)

CC(C)(C)c1ccc(Oc2ccc(N)cn2)cc1
max activity [6]: 14% (inactive)

CCc1ccc(/C=C2\SC(=S)N(CCCC(=O)NC3=NCCS3)C2=O)cc1
max activity [7]: -19% (inactive)

N#CC1=C(N)Oc2cc(N)ccc2C1c1cccc(F)c1 (stereo unspecified)
max activity [7]: -30% (inactive)

Cc1ccc(S(=O)(=O)N(C)C[C@@H]2Oc3cc(C#Cc4ccncc4)ccc3S(=O)(=O)N([C@@H](C)CO)C[C@H]2C)cc1
max activity [1]: -24.6% (inactive)

COC(=O)C[C@H]1C=C[C@@H](NC(=O)Nc2ccc(C(F)(F)F)cc2)[C@H](CO)O1
max activity [1]: -17.7% (inactive)

C#CCOCCOCCOCCNc1nc(N2CCN(C(=O)CCCCCCCCCCNC(=O)Cn3cc(C[C@@H](C)O)nn3)CC2)nc(N2CCN(C(=O)CCCCCCCCCCNC(=O)[C@H](CO)n3cc(CCCSC)nn3)CC2)n1
max activity [3]: 39.2% (inactive)

COc1ccc(/C=C2/SC(=S)N(CCCC(=O)Nc3ccccc3C(=O)O)C2=O)cc1
max activity [6]: -31.4% (inactive)

C[C@H]1CN([C@@H](C)CO)C(=O)Cc2cc(NC(=O)CCCCCC(=O)Nc3ccccc3N)ccc2O[C@H]1CN(C)Cc1ccc(Cl)c(Cl)c1
max activity [4]: -29.2% (inactive)

Cc1ccc(C(CC(=O)O)Nc2nc(N3CCOCC3)nc(N3CCOCC3)n2)cc1 (stereo unspecified)
max activity [3]: 36.9% (inactive)

Cc1cc(C(=O)NNC(=O)c2ccc(S(=O)(=O)N(C)C)cc2)c(C)o1
max activity [2]: 20% (inactive)

O=C(CCCN1C(=O)/C(=C/c2ccccc2Cl)SC1=S)NNC(=O)c1ccc(Cl)cc1
max activity [3]: 22.9% (inactive)

Cc1ccc(Cc2c(-c3ccco3)nc3c(C)cc(Br)cn23)cc1
max activity [5]: -46.1% (inactive)

C[C@@H]1CN([C@@H](C)CO)S(=O)(=O)c2ccc(C#CCN(C)C)cc2O[C@@H]1CN(C)Cc1ccncc1
max activity [1]: -45% (inactive)

N#C[C@H]1N[C@H](CO)[C@H]1c1ccc(C#Cc2ccc(F)cc2)cc1
max activity [3]: -31.2% (inactive)

Cc1ccc(/C=N/Nc2ccc3ccccc3n2)o1
max activity [3]: -46.4% (inactive)

COC(=O)C[C@@H]1CC[C@@H]2[C@H](COc3ccc(NC(=O)c4cc(C)on4)cc3C(=O)N2C)O1
max activity [5]: -20% (inactive)

COc1ccc(C2c3cc4c(cc3OC(NNC(N)=O)C2C)OCO4)cc1 (stereo unspecified)
max activity [7]: -29.8% (inactive)

COc1cc(-c2cnc3c(NC=O)cc(-c4cccc(NC(C)=O)c4)cn23)cc(OC)c1OC
max activity [5]: -32.8% (inactive)

CN(C)c1ccc(-c2ccnc3c2CC(C)(C(=O)NCc2ccco2)O3)cc1 (stereo unspecified)
max activity [7]: -25.6% (inactive)

Cc1cc(C(=O)Nc2ccc3c(c2)C(=O)N(C)[C@@H]2CC[C@@H](CC(=O)NCc4ccc(-c5ccccc5)cc4)O[C@H]2CO3)no1
max activity [5]: -28.4% (inactive)

O=C(NCc1cccnc1)C1Cc2c(-c3ccc(Cl)cc3)ccnc2O1 (stereo unspecified)
max activity [3]: -18.3% (inactive)

C(=N\Nc1ccc2ccccc2n1)/c1ccc2c(c1)OCO2
max activity [8]: -36.5% (inactive)

CC(C)(C)C(=O)Cn1ncc(Cl)c(Cl)c1=O
max activity [3]: -23.7% (inactive)

C[C@H](CO)N1C[C@H](C)[C@H](CN(C)Cc2ccccc2)Oc2ccc(NC(=O)CCCCCC(=O)Nc3ccccc3N)cc2CC1=O
max activity [4]: -23.9% (inactive)

CC(C)CC(NC(=O)c1cccs1)c1nnc(SCc2ccc(Cl)c(Cl)c2)n1C (stereo unspecified)
max activity [5]: -28.1% (inactive)

CCNC(=O)c1cc2c(c(-c3cccc(-c4cccc(OC)c4)c3)n1)[C@H](CCO)N([S@@](=O)C(C)(C)C)C2
max activity (at 3 µM, 0% = untreated, negative = ATP loss): -28.9% (inactive)

C[C@H]1CN([C@@H](C)CO)S(=O)(=O)c2ccc(C#Cc3ccncc3)cc2O[C@@H]1CN(C)S(=O)(=O)c1ccccc1
max activity [5]: -9.66% (inactive)

C[C@H]1CN([C@@H](C)CO)C(=O)Cc2cc(NC(=O)C3CC3)ccc2O[C@H]1CN(C)S(=O)(=O)c1ccc(Cl)cc1
max activity [9]: -39.2% (inactive)

COC(=O)C[C@@H]1CC[C@@H]2[C@H](COc3ccc(NC(=O)c4ccc(C(F)(F)F)cc4)cc3C(=O)N2C)O1
max activity [2]: -32.2% (inactive)

O=C(C[C@@H]1C[C@H]2c3cc(NC(=O)CC4CC4)ccc3O[C@H]2[C@H](CO)O1)NCc1ccccc1F
max activity [8]: -31.6% (inactive)

CN(C)Cc1c(O)ccc2c1O/C(=C\C=C\c1ccccc1)C2=O
max activity [7]: -26.2% (inactive)

COc1ccc(C(C)(O)c2nc(-c3cccc(F)c3)cs2)cc1 (stereo unspecified)
max activity [3]: -21.6% (inactive)

CC1(C)Oc2cc3oc(-c4cc(O)cc(O)c4)cc3cc2CC1O (stereo unspecified)
max activity [9]: -28.3% (inactive)

CCOc1ccc(N=Nc2ccc(O)c3ncccc23)cc1
max activity [3]: -26.7% (inactive)

C[C@H]1CN([C@@H](C)CO)C(=O)Cc2cc(NC(=O)CCCCCC(=O)Nc3ccccc3N)ccc2O[C@H]1CN(C)Cc1ccc(C(F)(F)F)cc1
max activity (at 1 µM, 0% = untreated, negative = ATP loss): -22.7% (inactive)

COc1ccc(CCC(C)NCC2CCCCC2)cc1 (stereo unspecified)
max activity [3]: -15.7% (inactive)

COC(=O)Cc1[nH]n(-c2nc3ccccc3s2)c(=O)c1C(C)=Nc1ccc(OC)cc1
max activity [3]: -20.2% (inactive)

Cc1ccc(C(C(=O)NCc2ccco2)N(C(=O)CNC(=O)c2cccs2)c2c(C)cc(C)cc2C)cc1 (stereo unspecified)
max activity [1]: -27% (inactive)

O=C(O)c1ccccc1C(=O)Nc1ccc(Oc2cccc3ccccc23)cc1
max activity [9]: -12.6% (inactive)

C/C(=N\OCc1cccc(C(=O)O)c1)c1ccc(Cl)cc1
max activity [9]: -7.45% (inactive)

CN=c1scc(-c2ccccc2F)n1/N=C/c1ccc(O)c(O)c1O
max activity [8]: -42.6% (inactive)

N#C[C@@H]1[C@H](c2ccc(C#Cc3ccc(F)cc3)cc2)[C@@H](CO)N1C(=O)Nc1ccc(F)cc1
max activity [2]: -24.6% (inactive)

C=CC[n+]1c(-c2ccc(C)cc2)csc1Nc1ccc(NC(C)=O)cc1
max activity [2]: 20.8% (inactive)

CC(NC(=O)c1ccco1)c1nc(-c2ccc(C(C)(C)C)cc2)no1 (stereo unspecified)
max activity [3]: -24.1% (inactive)

C[C@H]1CN([C@@H](C)CO)C(=O)Cc2cc(NC(=O)CCCCCC(=O)Nc3ccccc3N)ccc2O[C@H]1CN(C)Cc1ccc(Oc2ccccc2)cc1
max activity [1]: -23.9% (inactive)

O=C(O)c1ccc(N/N=C/c2c(F)cccc2Cl)cc1
max activity [7]: -13.6% (inactive)

CCOc1ccc(OCc2ccc(C(=O)NN=Cc3ccc[nH]3)cc2)cc1
max activity [3]: -34% (inactive)

O=C1Nc2ccccc2C1=Nc1ccccc1-c1ccccc1
max activity [1]: 10.3% (inactive)

C[C@@H]1CN([C@H](C)CO)S(=O)(=O)c2ccc(C#Cc3ccncc3)cc2O[C@@H]1CN(C)C(=O)Nc1ccc2c(c1)OCO2
max activity [9]: -31.9% (inactive)

COc1cc(/C=N\Nc2nc(-c3ccc(C)cc3)c(NC(C)=O)s2)ccc1O
max activity [6]: -20.6% (inactive)

Cc1ccc(S(=O)(=O)N(C)C[C@H]2Oc3c(cccc3N(C)C)C(=O)N([C@@H](C)CO)C[C@@H]2C)cc1
max activity [1]: -28.2% (inactive)

C/C(=N\N(c1ccccc1)c1ccccc1)c1ccco1
max activity [2]: 17.6% (inactive)

O=C(COC(=O)c1ccc[nH]c1=O)Nc1ccc(N2CCCCC2)cc1
max activity [7]: -25.3% (inactive)

CCc1ccc(N2C=C(C(=O)OC)C(c3ccc(OC)cc3)C(C#N)=C2N)cc1 (stereo unspecified)
max activity [1]: -15.5% (inactive)

O=C1NC(=S)NC(=O)C1=Cc1cccn1-c1ccc(O)cc1
max activity (at 26 µM): -27.6% (inactive)

N/C(=C\C(=O)c1cc(Cl)ccc1O)C(Cl)(Cl)Cl
max activity [2]: -18.1% (inactive)

CCOc1ccc(N=C2C(=O)Nc3ccc(C)c(Br)c32)cc1
max activity [1]: 11.1% (inactive)

COc1cccc(Sc2ccccc2/C=N/NC(N)=O)c1
max activity [1]: -25.8% (inactive)

COCCOC(=O)N1C(=O)[C@@]2(c3cc(C#CCC(C(=O)OC)C(=O)OC)ccc31)[C@H](c1ccccc1OCCO)N1[C@H](c3ccccc3)[C@H](c3ccccc3)OC(=O)[C@H]1[C@@H]2C(=O)N1CCN(c2ncccn2)CC1
max activity [1]: -30.6% (inactive)

CCCc1cc(=O)oc2c3c(c4c(c12)OC(C)(C)C=C4)OC(C)C(C)C3O (stereo unspecified)
max activity [5]: -25.9% (inactive)

CCN1CCN(/C=N/c2nc3c(s2)CCCC3)CC1
max activity [2]: -25.3% (inactive)

Cc1cc(Br)ccc1N=C1C(=O)Nc2ccccc21
max activity [1]: -28.8% (inactive)

CCc1c(C(=O)NN2C(=O)C3CCCCC3C2=O)csc1C (stereo unspecified)
max activity [5]: -31.9% (inactive)

Nc1ccc(Oc2cccc(Oc3ccc(N)cc3)c2)cc1
max activity [2]: 11.2% (inactive)

COc1ccc(S(=O)(=O)N2CC[C@@H]3[C@@H](CO)Nc4ccc(-c5ccc(C#N)cc5)cc4[C@@H]32)cc1
max activity [9]: -30.2% (inactive)
